Patent US10836763B2, “5 to 7 membered heterocyclic amides as JAK inhibitors” (priority 2018, dated 2020)
Where two headings read alike, the source gives them in different places.

Key:
[1] = tested on: TSLP-evoked TARC release in human peripheral blood mononuclear cells; test: Inhibition of TSLP-evoked TARC release in human peripheral blood mononuclear cells; format: cell-based; details: read-out: pIC50 ± st. dev., inhibition of TSLP-evoked TARC release (converted)
Source text: Assay 4: Inhibition of TSLP-Evoked TARC Release in Human Peripheral Blood Mononuclear Cells
Thymic stromal lymphopoietin (TSLP) and thymus and activation-regulated chemokine (TARC) are overexpressed in asthmatic airways, and correlate with disease severity. In the lungs, TSLP may be released by bronchial epithelial cells in response to allergens and viral infections. TSLP signals through an IL-7Rα/TSLPR heterodimer found in a broad range of tissues and cell types, including epithelial cells, endothelial cells, neutrophils, macrophages, and mast cells. The binding of TSLP to its receptor induces a conformational change that activates JAK1 and JAK2 to phosphorylate various transcription factors, including STAT3 and STAT5. In immune cells, this triggers a cascade of intracellular events that result in cell proliferation, anti-apoptosis, dendritic cell migration, and production of Th2 cytokines and chemokines. In peripheral blood mononuclear cells (PBMC), TSLP has a proinflammatory effect by activating myeloid dendritic cells to attract and stimulate T cells, a process mediated by the chemoattractant TARC.
The potencies of the test compounds were measured for inhibition of TARC release.
PBMC aliquots (previously isolated from whole blood and frozen in aliquots at −80° C.) from 3 to 5 donors were thawed at 37° C. and added dropwise to 40 mL pre-warmed, sterile-filtered, complete RPMI media in 50 mL Falcon tubes. Cells were pelleted and resuspended in complete media at 2.24×10^6 cells/mL. Cells were seeded at […] (190,000 cells) per well in a tissue culture treated 96-well flat bottom microplate. Cells were allowed to rest for 1 hour at 37° C. with 5% CO2.
Compounds were received as 10 mM stock solutions in DMSO. 3.7-fold serial dilutions were performed to generate 9 concentrations of test compound in DMSO at 300× the final assay test concentration. […] After the 1 hour rest period, 95 µL of 2× compound was added to each well of PBMC, for a final assay concentration range of 33.33 μM to […]. 95 μL of 0.2% DMSO in complete media was added to the untreated control wells. Cells were pre-treated with compound for 1 hour at 37° C. with 5% CO2 prior to stimulation.
Recombinant human TSLP protein was reconstituted at 10 μg/mL in sterile DPBS with 0.1% BSA and stored in aliquots at −20° C. Immediately prior to use, an aliquot was thawed and prepared at 20× the final assay concentration in complete media. 10 μL of 20×TSLP was added to each well of PBMC, for a final assay concentration of 10 ng/mL. 10 μL of complete media was added to the unstimulated control wells. Cells were stimulated in the presence of compound for 48 hours at 37° C. with 5% CO2.
Following stimulation, the cell culture supernatants were harvested and TARC levels were detected by enzyme-linked immunosorbent assay (ELISA), using Human CCL17/TARC Quantikine ELISA Kit (R&D Systems # DDN00) according to the manufacturer's instructions.
For dose response analysis, the log [test compound (M)] was plotted versus the percent response values for each donor, and IC50 values were determined using a nonlinear regression analysis with GraphPad Prism Software using the 4-parameter sigmoidal dose-response algorithm with variable slope. Data are expressed as mean pIC50 (negative decadic logarithm IC50) values calculated from pIC50 values of individual donors and rounded to one decimal place.

JAK1 = JAK1 (Homo sapiens (Human), UniProt P23458); test: Biochemical JAK kinase assay (LanthaScreen), JAK1
Procedure: Assay 1: Biochemical JAK Kinase Assays
A panel of four LanthaScreen JAK biochemical assays (JAK1, 2, 3 and Tyk2) were carried in a common kinase reaction buffer (50 mM HEPES, pH 7.5, 0.01% Brij-35, 10 mM MgCl2, and 1 mM EGTA). Recombinant GST-tagged JAK enzymes and a GFP-tagged STAT1 peptide substrate were obtained from Life Technologies.
Serially diluted compounds were pre-incubated with each of the four JAK enzymes and the substrate in white 384-well microplates (Corning) at ambient temperature for 1 h. ATP was subsequently added to initiate the kinase reactions in 10 μL total volume, with 1% DMSO. […] Kinase reactions were allowed to proceed for 1 hour at ambient temperature before a 10 μL preparation of EDTA (10 mM final concentration) and Tb-anti-pSTAT1 (pTyr701) antibody (Life Technologies, 2 nM final concentration) in TR-FRET dilution buffer (Life Technologies) was added. The plates were allowed to incubate at ambient temperature for 1 h before being read on the EnVision reader (Perkin Elmer). Emission ratio signals (520 nm/495 nm) were recorded and utilized to calculate the percent inhibition values based on DMSO and background controls.
For dose-response analysis, percent inhibition data were plotted vs. compound concentrations, and IC50 values were determined from a 4-parameter robust fit model with the Prism software (GraphPad Software). Results were expressed as pIC50 (negative logarithm of IC50) and subsequently converted to pKi (negative logarithm of dissociation constant, Ki) using the Cheng-Prusoff equation.

[2] = Lung and plasma drug concentration in the murine IL-13 pSTAT6 model; format: in vivo; details: mouse, other: oral aspiration, 50 µg/mouse; for Kp at 5 h: Balb/c, lung ng/g to plasma ng/mL at 5 hours, mice, oral aspiration, read-out: Lung to Plasma ratio at 5 hr; for concentration at 5 h: Balb/c mice, 1 mg/mL, 50 μL oral aspiration, 5 hr post dose
Procedure: Assay 3: Murine (Mouse) Model of IL-13 Induced pSTAT6 Induction in Lung Tissue
Adult Balb/c mice from Harlan were used in the assay. […] Animals were placed in lateral recumbency post dose and monitored for full recovery from anesthesia before being returned to their home cage. Four hours later, animals were once again briefly anesthetized and challenged with either vehicle or IL-13 (0.03 μg total dose delivered, 50 μL total volume) via oral aspiration before being monitored for recovery from anesthesia and returned to their home cage. One hour after vehicle or IL-13 administration, whole blood and lungs were collected for both pSTAT6 detection in lung homogenates using a Perkin Elmer AlphaLISA® SureFire® Ultra™ HV p-STAT6 (Tyr641) assay kit and for total drug concentration analysis in both lung and plasma. Blood samples were centrifuged (Eppendorf centrifuge, 5804R) for 4 minutes at approximately 12,000 rpm at 4° C. to collect plasma. […] Plasma and lung levels of test compound were determined by LC-MS analysis against analytical standards constructed into a standard curve in the test matrix. A lung to plasma ratio was determined as the ratio of the lung concentration in ng/g to the plasma concentration in ng/mL at 5 hours.

[3] = PBMC from 3 to 5 donors, TSLP 10 ng/mL, 48 hours, TARC ELISA
[4] = ATP at Km 25 μM, pIC50 converted with Cheng-Prusoff
[5] = lung, read-out: Lung Concentration (ng/g) at 5 hr
[6] = plasma, read-out: Plasma Concentration (ng/mL) at 5 hr

JAK1, sequence (P23458 whole entry): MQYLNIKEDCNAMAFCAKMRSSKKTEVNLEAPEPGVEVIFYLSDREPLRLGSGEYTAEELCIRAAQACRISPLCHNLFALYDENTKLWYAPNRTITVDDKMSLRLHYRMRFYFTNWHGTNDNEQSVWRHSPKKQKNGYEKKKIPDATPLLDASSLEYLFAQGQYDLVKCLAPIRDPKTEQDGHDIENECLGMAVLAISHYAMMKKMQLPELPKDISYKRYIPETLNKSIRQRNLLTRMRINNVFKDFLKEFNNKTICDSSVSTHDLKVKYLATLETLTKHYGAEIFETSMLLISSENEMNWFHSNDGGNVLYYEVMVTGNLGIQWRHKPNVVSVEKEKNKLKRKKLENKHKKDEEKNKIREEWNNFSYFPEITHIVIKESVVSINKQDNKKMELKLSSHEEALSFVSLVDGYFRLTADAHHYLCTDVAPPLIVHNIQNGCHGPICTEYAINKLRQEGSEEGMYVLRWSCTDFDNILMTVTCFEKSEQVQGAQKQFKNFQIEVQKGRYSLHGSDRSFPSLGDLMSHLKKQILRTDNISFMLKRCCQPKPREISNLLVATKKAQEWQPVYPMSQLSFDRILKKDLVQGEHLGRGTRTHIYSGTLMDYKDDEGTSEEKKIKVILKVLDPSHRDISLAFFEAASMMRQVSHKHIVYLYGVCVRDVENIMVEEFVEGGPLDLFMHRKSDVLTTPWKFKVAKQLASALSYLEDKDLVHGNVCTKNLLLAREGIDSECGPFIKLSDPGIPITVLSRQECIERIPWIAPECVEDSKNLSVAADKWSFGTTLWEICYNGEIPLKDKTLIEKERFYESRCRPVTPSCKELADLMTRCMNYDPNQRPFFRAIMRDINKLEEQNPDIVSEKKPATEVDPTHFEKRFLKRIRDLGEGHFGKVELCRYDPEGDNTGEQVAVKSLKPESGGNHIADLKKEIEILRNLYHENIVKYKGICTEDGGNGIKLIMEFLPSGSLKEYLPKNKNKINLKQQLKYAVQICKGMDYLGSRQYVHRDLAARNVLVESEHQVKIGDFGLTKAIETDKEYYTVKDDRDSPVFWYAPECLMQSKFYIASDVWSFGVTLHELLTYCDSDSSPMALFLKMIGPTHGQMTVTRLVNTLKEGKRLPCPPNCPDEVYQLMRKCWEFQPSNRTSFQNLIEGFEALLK

SMILES	IC50 [1, 3] [nM]	JAK1 pKi (JAK1; [4])	Kp at 5 h [2]	concentration at 5 h [2, 5] [ng/g]	concentration at 5 h [2, 6] [ng/mL]	IC50 ([1]; PBMC, 48 h) [nM]	JAK1 pKi (JAK1)
CCCN1Cc2[nH]c(-c3n[nH]c4cc(-c5ccc(O)cc5CC)ccc34)nc2C[C@H]1C(=O)N1C[C@@H]2C[C@H]1CN2C [Compound 2, ((S)-2-(6-(2-ethyl-4-hydroxyphenyl)-1H-indazol-3-yl)-5-propyl-4,5,6,7-tetrahydro-3H-imidazo[4,5-c]pyridin-6-yl)((1S,4S)-5-methyl-2,5-diazabicyclo[2.2.1]heptan-2-yl)methanone]	158	10.3	1340	23400 ± 12500	17.5 ± 25	–	–
CCCN1Cc2[nH]c(-c3n[nH]c4cc(-c5ccc(O)cc5CC)ccc34)nc2C[C@H]1C(=O)N1CCN(CCO)CC1 [Compound 1, (S)-(2-(6-(2-ethyl-4-hydroxyphenyl)-1H-indazol-3-yl)-5-propyl-4,5,6,7-tetrahydro-3H-imidazo[4,5-c]pyridin-6-yl)(4-(2-hydroxyethyl)piperazin-1-yl)methanone]	79.4	10.2	1260	13000 ± 5720	10.3 ± 3.9	–	–
CCc1cc(O)c(F)cc1-c1ccc2c(-c3nc4c([nH]3)CN(C)[C@H](C(=O)N3CCN(CCO)C[C@H]3C)C4)n[nH]c2c1 [Compound C-5, ((S)-2-(6-(2-ethyl-5-fluoro-4-hydroxyphenyl)-1H-indazol-3-yl)-5-methyl-4,5,6,7-tetrahydro-3H-imidazo[4,5-c]pyridin-6-yl)((R)-4-(2-hydroxyethyl)-2-methyl-piperazin-1-yl)methanone, reference compound]	50.1	10.1	–	–	–	–	–
CCc1cc(O)ccc1-c1ccc2c(-c3nc4c([nH]3)CN(C(C)C)[C@H](C(=O)N3CC[C@H](N(C)C)C3)C4)n[nH]c2c1 [Compound 6, ((S)-3-(dimethylamino)pyrrolidin-1-yl)((S)-2-(6-(2-ethyl-4-hydroxyphenyl)-1H-indazol-3-yl)-5-isopropyl-4,5,6,7-tetrahydro-3H-imidazo[4,5-c]pyridin-6-yl)methanone]	–	–	1030	11600 ± 4680	11.3 ± 5.7	158	10.2
CCCN1Cc2[nH]c(-c3n[nH]c4cc(-c5cc(F)c(O)cc5CC)ccc34)nc2C[C@H]1C(=O)N1CCN(CCO)CC1 [Compound C-1, (S)-(2-(6-(2-ethyl-5-fluoro-4-hydroxyphenyl)-1H-indazol-3-yl)-5-propyl-4,5,6,7-tetrahydro-3H-imidazo[4,5-c]pyridin-6-yl)(4-(2-hydroxyethyl)piperazin-1-yl)methanone, reference compound]	100	10.2	–	–	–	–	–
CCc1cc(O)c(F)cc1-c1ccc2c(-c3nc4c([nH]3)CN(C(C)C)[C@H](C(=O)N3CCCN(C)CC3)C4)n[nH]c2c1 [Compound C-4, (S)-(2-(6-(2-ethyl-5-fluoro-4-hydroxyphenyl)-1H-indazol-3-yl)-5-isopropyl-4,5,6,7-tetrahydro-3H-imidazo[4,5-c]pyridin-6-yl)(4-methyl-1,4-diazepan-1-yl)methanone, reference compound]	100	10.0	–	–	–	–	–
CCc1cc(O)c(F)cc1-c1ccc2c(-c3nc4c([nH]3)CN(C)[C@H](C(=O)N3CCN(C)C[C@@H]3C)C4)n[nH]c2c1 [Compound C-3, ((S)-2,4-dimethylpiperazin-1-yl)((S)-2-(6-(2-ethyl-5-fluoro-4-hydroxyphenyl)-1H-indazol-3-yl)-5-methyl-4,5,6,7-tetrahydro-3H-imidazo[4,5-c]pyridin-6-yl)methanone, reference compound]	100	–	–	–	–	–	–
CCc1cc(O)ccc1-c1ccc2c(-c3nc4c([nH]3)CN(C)[C@H](C(=O)N3CCN(CCO)C[C@H]3C)C4)n[nH]c2c1 [Compound 5, ((S)-2-(6-(2-ethyl-4-hydroxyphenyl)-1H-indazol-3-yl)-5-methyl-4,5,6,7-tetrahydro-3H-imidazo[4,5-c]pyridin-6-yl)((R)-4-(2-hydroxyethyl)-2-methylpiperazin-1-yl)methanone]	–	–	418	5440 ± 1860	13 ± 3.7	31.6	10.3
CCc1cc(O)ccc1-c1ccc2c(-c3nc4c([nH]3)CN(C(C)C)[C@H](C(=O)N3CCCN(C)CC3)C4)n[nH]c2c1 [Compound 4, (S)-(2-(6-(2-ethyl-4-hydroxyphenyl)-1H-indazol-3-yl)-5-isopropyl-4,5,6,7-tetrahydro-3H-imidazo[4,5-c]pyridin-6-yl)(4-methyl-1,4-diazepan-1-yl)methanone]	–	–	788	17400 ± 6620	22 ± 23	158	10.1
CCCN1Cc2[nH]c(-c3n[nH]c4cc(-c5cc(F)c(O)cc5CC)ccc34)nc2C[C@H]1C(=O)N1C[C@@H]2C[C@H]1CN2C [Compound C-2, ((S)-2-(6-(2-ethyl-5-fluoro-4-hydroxyphenyl)-1H-indazol-3-yl)-5-propyl-4,5,6,7-tetrahydro-3H-imidazo[4,5-c]pyridin-6-yl)((1S,4S)-5-methyl-2,5-diazabicyclo-[2.2.1]heptan-2-yl)methanone, reference compound]	251	10.3	–	–	–	–	–
